# Assay results reported in article PMC8550792, “Evolution of kinase polypharmacology across HSP90 drug discovery” (Cell Chemical Biology, 2021).
# What was measured:
# PDK4/PDKH4 = molecular target: T1, PDK4/PDKH4 (Homo sapiens, UniProt Q16654); assay: HotSpot in vitro kinase radiometric assay; assay type: biochemical; conditions: 10uM, ATP 30 uM, Data 1, Data 2
# T1 construct: purchased Reaction Biology (HotSpot contract assay)
# Experimental: (§1) Accordingly, we selected five additional representative HSP90 inhibitors, at least one from each chemical class, including both synthetic inhibitors and natural products. […]
# (§2) This radioisotope binding assay was designed to directly detect the true product without the use of modified substrates, coupling enzymes, or detection antibodies thus enabling to directly measure inhibition of catalytic activity. Test or control compounds were incubated with kinase, substrate, cofactors, and radioisotope-labeled ATP (32P-ɣ-ATP or 33P-ɣ-ATP). The reaction mixtures were then spotted onto filter papers, which bind the radioisotope-labeled catalytic product.
# LYN B = molecular target: T2, LYN B (Homo sapiens, UniProt P07948); assay: HotSpot in vitro kinase radiometric assay; assay type: biochemical; conditions: 10uM, ATP 20 uM, Data 1, Data 2
# T2 construct: purchased Reaction Biology (HotSpot contract assay)
# Experimental: as §1, §2
# PDK2/PDHK2 = molecular target: T3, PDK2/PDHK2 (Homo sapiens, UniProt Q15119); assay: HotSpot in vitro kinase radiometric assay; assay type: biochemical; conditions: 10uM, ATP 15 uM, Data 1, Data 2
# T3 construct: purchased Reaction Biology (HotSpot contract assay)
# Experimental: as §1, §2
# BLK = molecular target: T4, BLK (Homo sapiens, UniProt P51451); assay: HotSpot in vitro kinase radiometric assay; assay type: biochemical; conditions: 10uM, ATP 10 uM, Data 1, Data 2
# T4 construct: purchased Reaction Biology (HotSpot contract assay)
# Experimental: as §1, §2
# c-Src = molecular target: T5, c-Src (Homo sapiens, UniProt P12931); assay: HotSpot in vitro kinase radiometric assay; assay type: biochemical; conditions: 10uM, ATP 15 uM, Data 1, Data 2
# T5 construct: purchased Reaction Biology (HotSpot contract assay)
# Experimental: as §1, §2
# DDR1 = DDR1 (Homo sapiens, UniProt Q08345); assay: HotSpot in vitro kinase radiometric assay; assay type: biochemical; design: purchased Reaction Biology (HotSpot contract assay); conditions: 10uM, ATP 100 uM, Data 1, Data 2
# YES/YES1 = molecular target: T6, YES/YES1 (Homo sapiens, UniProt P07947); assay: HotSpot in vitro kinase radiometric assay; assay type: biochemical; conditions: 10uM, ATP 50 uM, Data 1, Data 2
# T6 construct: purchased Reaction Biology (HotSpot contract assay)
# PEAK1 = molecular target: T7, PEAK1 (Homo sapiens, UniProt Q9H792); assay: HotSpot in vitro kinase radiometric assay; assay type: biochemical; conditions: 10uM, ATP 30 uM, Data 1, Data 2
# T7 construct: purchased Reaction Biology (HotSpot contract assay)
# HSP90AA1 = conditions: average of reported values; ref ChEMBL23 (accessed: 23/08/2018); cited from earlier work
# 382 unique human kinases [1] = assay: biochemical; assay type: biochemical; conditions: cutoff of >85% inhibition at 10 μM; luminespib and ganetespib large kinome panel, others 16-kinase panel
# LCK = molecular target: T8, LCK (Homo sapiens, UniProt P06239); assay: HotSpot in vitro kinase radiometric assay; assay type: biochemical; conditions: 10uM, ATP 15 uM, Data 1, Data 2
# T8 construct: purchased Reaction Biology (HotSpot contract assay)
# FYN = molecular target: T9, FYN (Homo sapiens, UniProt P06241); assay: HotSpot in vitro kinase radiometric assay; assay type: biochemical; conditions: 10uM, ATP 30 uM, Data 1, Data 2
# T9 construct: purchased Reaction Biology (HotSpot contract assay)
# TRAP1 = system: TRAP1; design: method as in ChEMBL23 (accessed: 23/08/2018); conditions: average of reported values; ref ChEMBL23 (accessed: 23/08/2018); cited from earlier work
# 16-kinase panel = 16-kinase panel screening, in vitro radiometric assay; assay type: biochemical, human; conditions: 10 μM
# FGR = molecular target: T10, FGR (Homo sapiens, UniProt P09769); assay: HotSpot in vitro kinase radiometric assay; assay type: biochemical; conditions: 10uM, ATP 50 uM, Data 1, Data 2
# T10 construct: purchased Reaction Biology (HotSpot contract assay)
# ABL2/ARG = molecular target: T11, ABL2/ARG (Homo sapiens, UniProt P42684); assay: HotSpot in vitro kinase radiometric assay; assay type: biochemical; conditions: 10uM, ATP 30 uM, Data 1, Data 2
# T11 construct: purchased Reaction Biology (HotSpot contract assay)
# PASK = molecular target: T12, PASK (Homo sapiens, UniProt Q96RG2); assay: HotSpot in vitro kinase radiometric assay; assay type: biochemical; conditions: 10uM, ATP 50 uM, Data 1, Data 2
# T12 construct: purchased Reaction Biology (HotSpot contract assay)
# Excerpt: (§3) Accordingly, we selected five additional representative HSP90 inhibitors, at least one from each chemical class, including both synthetic inhibitors and natural products.
# (§4) Accordingly, we screened the hit compound and the two leads for kinase off-target inhibition using the 16-kinase panel and the same in vitro catalytic assay used previously.
# as §2
# TRKA = molecular target: T13, TRKA (Homo sapiens, UniProt P04629); assay: HotSpot in vitro kinase radiometric assay; assay type: biochemical; conditions: 10uM, ATP 100 uM, Data 1, Data 2
# T13 construct: purchased Reaction Biology (HotSpot contract assay)
# Excerpt: as §3, §4, §2
# HSP90AB1 = system: HSP90AB1; design: method as in ChEMBL23 (accessed: 23/08/2018); conditions: average of reported values; ref ChEMBL23 (accessed: 23/08/2018); cited from earlier work
# TRKC = molecular target: T14, TRKC (Homo sapiens, UniProt Q16288); assay: HotSpot in vitro kinase radiometric assay; assay type: biochemical; conditions: 10uM, ATP 100 uM, Data 1, Data 2
# T14 construct: purchased Reaction Biology (HotSpot contract assay)
# ABL1 = ABL1 (Homo sapiens, UniProt P00519); assay: HotSpot in vitro kinase radiometric assay; assay type: biochemical; design: purchased Reaction Biology (HotSpot contract assay); conditions: 10uM, ATP 40 uM, Data 1, Data 2
# 382 unique human kinases [2] = molecular target: T15, 382 unique human kinases (Homo sapiens, UniProt P37173); assay: biochemical; assay type: biochemical; conditions: kinase TGFBR2; read-out: Control Compound IC50*
# T15 construct: purchased Reaction Biology (HotSpot contract assay)
# 382 unique human kinases [3] = molecular target: T16, 382 unique human kinases (Homo sapiens, UniProt Q6IQ55); assay: biochemical; assay type: biochemical; conditions: TTBK2; read-out: Control Compound IC50*
# T16 construct: purchased Reaction Biology (HotSpot contract assay)
# 382 unique human kinases [4] = molecular target: T17, 382 unique human kinases (Homo sapiens, UniProt Q8TDX7); assay: biochemical; assay type: biochemical; conditions: NEK7; read-out: Control Compound IC50*
# T17 construct: purchased Reaction Biology (HotSpot contract assay)
# 382 unique human kinases [5] = molecular target: T18, 382 unique human kinases (Homo sapiens, UniProt Q9HC98); assay: biochemical; assay type: biochemical; conditions: NEK6; read-out: Control Compound IC50*
# T18 construct: purchased Reaction Biology (HotSpot contract assay)
# 382 unique human kinases [6] = molecular target: T19, 382 unique human kinases (Homo sapiens, UniProt Q9BYP7); assay: biochemical; assay type: biochemical; conditions: WNK3; read-out: Control Compound IC50*
# T19 construct: purchased Reaction Biology (HotSpot contract assay)
# T10 sequence (P09769 whole entry): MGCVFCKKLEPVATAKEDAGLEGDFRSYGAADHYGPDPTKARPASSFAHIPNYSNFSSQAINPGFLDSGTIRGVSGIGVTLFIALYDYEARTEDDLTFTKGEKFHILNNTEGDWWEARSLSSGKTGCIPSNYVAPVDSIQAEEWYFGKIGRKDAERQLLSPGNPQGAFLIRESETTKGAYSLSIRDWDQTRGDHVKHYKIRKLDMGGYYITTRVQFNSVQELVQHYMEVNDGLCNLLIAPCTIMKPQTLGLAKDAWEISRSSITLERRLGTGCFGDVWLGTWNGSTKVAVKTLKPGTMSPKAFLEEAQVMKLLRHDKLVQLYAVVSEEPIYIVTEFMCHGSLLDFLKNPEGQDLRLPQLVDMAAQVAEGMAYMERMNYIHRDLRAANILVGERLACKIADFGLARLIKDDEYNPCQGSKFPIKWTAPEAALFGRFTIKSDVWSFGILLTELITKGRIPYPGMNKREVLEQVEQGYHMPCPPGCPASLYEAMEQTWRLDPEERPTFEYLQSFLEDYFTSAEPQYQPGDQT
# T8 sequence (P06239 whole entry): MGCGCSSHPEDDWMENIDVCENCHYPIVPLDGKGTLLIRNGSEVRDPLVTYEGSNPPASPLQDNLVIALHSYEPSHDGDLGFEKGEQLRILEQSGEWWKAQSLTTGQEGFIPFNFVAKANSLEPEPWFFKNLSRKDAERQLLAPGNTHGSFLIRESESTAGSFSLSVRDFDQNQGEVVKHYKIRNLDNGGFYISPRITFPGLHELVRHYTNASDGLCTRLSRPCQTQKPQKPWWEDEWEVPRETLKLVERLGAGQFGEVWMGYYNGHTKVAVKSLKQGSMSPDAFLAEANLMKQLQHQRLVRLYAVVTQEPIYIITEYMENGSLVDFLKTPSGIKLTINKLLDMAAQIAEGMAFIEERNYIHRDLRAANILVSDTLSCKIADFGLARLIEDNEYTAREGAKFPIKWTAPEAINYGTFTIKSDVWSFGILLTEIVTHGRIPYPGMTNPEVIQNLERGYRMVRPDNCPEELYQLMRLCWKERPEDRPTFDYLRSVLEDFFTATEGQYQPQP
# T7 sequence (Q9H792 whole entry): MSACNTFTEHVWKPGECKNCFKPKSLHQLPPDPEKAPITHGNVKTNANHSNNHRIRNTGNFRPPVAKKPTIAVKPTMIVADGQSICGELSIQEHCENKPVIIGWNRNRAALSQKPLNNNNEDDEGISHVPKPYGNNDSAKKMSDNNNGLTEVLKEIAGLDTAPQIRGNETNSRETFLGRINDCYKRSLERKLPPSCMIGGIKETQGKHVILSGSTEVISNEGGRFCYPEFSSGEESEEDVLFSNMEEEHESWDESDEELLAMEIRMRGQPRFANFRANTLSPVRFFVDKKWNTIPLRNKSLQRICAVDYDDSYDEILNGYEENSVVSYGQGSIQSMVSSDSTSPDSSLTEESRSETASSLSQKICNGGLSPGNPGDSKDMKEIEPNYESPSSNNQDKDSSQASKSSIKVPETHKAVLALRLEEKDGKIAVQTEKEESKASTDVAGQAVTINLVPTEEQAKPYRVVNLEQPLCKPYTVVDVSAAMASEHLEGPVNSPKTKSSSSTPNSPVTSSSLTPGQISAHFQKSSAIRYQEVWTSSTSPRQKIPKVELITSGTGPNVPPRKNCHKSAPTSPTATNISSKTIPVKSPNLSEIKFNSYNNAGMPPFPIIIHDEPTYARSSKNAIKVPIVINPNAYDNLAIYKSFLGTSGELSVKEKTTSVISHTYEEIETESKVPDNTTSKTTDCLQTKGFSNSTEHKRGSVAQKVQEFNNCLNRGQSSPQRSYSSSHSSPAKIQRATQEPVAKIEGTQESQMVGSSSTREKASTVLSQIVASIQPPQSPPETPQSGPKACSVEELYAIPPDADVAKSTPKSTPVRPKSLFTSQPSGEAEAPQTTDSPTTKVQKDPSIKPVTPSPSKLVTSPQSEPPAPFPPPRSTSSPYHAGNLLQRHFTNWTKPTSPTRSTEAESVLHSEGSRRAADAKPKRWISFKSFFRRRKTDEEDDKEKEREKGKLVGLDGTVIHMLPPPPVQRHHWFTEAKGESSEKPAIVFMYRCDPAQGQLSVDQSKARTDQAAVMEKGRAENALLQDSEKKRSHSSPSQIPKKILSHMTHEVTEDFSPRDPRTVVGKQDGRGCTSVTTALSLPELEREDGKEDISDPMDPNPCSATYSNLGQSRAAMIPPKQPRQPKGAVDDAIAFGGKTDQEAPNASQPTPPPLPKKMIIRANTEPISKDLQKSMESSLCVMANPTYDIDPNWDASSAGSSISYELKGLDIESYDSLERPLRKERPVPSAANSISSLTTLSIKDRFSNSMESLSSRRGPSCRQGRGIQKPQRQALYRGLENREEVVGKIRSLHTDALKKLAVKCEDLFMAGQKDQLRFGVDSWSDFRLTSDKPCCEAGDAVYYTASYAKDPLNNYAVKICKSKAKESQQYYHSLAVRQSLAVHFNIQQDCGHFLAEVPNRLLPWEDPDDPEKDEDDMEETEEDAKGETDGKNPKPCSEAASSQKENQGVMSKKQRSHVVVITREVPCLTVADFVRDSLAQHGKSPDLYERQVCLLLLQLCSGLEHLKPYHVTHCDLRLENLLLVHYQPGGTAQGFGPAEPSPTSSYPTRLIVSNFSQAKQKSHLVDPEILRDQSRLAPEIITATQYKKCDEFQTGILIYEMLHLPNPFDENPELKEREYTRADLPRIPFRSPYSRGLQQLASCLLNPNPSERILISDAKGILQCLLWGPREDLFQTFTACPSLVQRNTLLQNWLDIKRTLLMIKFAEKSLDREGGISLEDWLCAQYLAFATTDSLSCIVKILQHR
# T5 sequence (P12931 whole entry): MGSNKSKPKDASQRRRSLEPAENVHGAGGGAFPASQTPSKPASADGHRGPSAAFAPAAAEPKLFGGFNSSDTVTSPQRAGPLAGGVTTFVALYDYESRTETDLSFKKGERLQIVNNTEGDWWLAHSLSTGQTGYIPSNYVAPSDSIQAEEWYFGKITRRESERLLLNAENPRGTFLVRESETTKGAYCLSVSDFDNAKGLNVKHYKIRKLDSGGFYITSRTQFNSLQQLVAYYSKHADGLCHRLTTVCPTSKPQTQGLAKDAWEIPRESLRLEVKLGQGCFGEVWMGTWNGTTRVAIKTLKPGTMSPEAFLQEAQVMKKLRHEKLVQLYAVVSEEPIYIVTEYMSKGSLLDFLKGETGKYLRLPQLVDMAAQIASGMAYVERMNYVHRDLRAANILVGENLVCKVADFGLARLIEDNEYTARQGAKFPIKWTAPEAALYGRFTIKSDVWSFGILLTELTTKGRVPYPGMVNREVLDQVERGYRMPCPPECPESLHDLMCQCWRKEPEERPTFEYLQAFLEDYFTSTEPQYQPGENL
# DDR1, sequence (Q08345 19-913): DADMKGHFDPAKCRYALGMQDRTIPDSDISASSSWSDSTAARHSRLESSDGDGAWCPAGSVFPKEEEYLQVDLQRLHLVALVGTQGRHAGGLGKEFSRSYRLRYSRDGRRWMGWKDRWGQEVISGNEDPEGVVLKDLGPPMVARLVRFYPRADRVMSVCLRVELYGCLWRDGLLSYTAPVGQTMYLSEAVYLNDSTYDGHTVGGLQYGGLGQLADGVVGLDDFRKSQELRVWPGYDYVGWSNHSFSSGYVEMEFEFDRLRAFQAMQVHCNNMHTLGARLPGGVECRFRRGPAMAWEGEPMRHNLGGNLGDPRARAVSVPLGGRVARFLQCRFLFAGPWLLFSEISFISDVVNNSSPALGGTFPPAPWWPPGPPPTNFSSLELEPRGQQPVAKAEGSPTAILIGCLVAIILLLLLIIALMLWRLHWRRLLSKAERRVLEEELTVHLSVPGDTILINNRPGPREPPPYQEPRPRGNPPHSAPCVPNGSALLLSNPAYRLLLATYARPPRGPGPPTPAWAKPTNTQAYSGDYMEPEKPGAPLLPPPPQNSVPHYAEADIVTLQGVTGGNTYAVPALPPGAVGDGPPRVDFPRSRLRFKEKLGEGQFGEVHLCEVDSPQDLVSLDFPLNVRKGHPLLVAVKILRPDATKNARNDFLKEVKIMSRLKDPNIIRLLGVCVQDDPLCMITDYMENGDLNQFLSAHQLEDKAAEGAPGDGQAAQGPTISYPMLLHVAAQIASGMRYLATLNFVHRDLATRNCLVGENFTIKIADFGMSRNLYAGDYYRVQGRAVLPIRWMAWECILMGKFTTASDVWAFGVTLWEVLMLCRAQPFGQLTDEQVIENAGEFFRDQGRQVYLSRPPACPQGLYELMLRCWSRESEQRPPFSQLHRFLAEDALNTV
# T9 sequence (P06241 whole entry): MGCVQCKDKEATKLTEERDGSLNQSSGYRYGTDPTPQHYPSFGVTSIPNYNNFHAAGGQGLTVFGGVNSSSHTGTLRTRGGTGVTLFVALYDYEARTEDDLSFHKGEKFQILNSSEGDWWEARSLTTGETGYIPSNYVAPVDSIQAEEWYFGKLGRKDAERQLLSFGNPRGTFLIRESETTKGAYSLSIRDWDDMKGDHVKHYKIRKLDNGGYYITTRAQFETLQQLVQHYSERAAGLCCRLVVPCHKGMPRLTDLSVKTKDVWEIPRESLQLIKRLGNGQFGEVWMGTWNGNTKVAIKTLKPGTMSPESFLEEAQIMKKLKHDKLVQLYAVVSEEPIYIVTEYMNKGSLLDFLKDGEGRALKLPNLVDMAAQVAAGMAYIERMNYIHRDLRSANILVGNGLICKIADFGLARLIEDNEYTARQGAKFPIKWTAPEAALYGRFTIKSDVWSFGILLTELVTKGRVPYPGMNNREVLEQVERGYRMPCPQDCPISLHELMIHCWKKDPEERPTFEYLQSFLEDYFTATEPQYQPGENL
# T18 sequence (Q9HC98 whole entry): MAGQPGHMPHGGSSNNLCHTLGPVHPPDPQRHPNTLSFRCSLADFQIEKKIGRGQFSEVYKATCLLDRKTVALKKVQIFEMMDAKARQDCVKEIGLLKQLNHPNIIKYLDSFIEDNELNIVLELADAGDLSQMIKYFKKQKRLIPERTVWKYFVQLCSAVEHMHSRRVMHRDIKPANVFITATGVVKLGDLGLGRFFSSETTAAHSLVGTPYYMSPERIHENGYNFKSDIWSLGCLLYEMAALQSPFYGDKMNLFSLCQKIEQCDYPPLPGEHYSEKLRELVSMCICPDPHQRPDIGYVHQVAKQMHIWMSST
structure (smiles),measurement,setting,value
CN(C)c1cc2c(cc1Sc1nc3c(N)nccc3n1CCNCC(C)(C)C)OCO2 [Debio-0932],% Enzyme Activity (relative to DMSO controls),PDK4/PDKH4; PDK4/PDKH4,111.02%
same,remaining activity at 10 µM,"PDK4/PDKH4; read-out: % Enzyme Activity (relative to DMSO controls), PDK4/PDKH4",111%
same,% Enzyme Activity (relative to DMSO controls),LYN B; LYN B,101.36%
same,remaining activity at 10 µM,"LYN B; read-out: % Enzyme Activity (relative to DMSO controls), LYN B",101%
same,% Enzyme Activity (relative to DMSO controls),PDK2/PDHK2; PDK2/PDHK2,100.31%
same,remaining activity at 10 µM,"PDK2/PDHK2; read-out: % Enzyme Activity (relative to DMSO controls), PDK2/PDHK2",108%
same,% Enzyme Activity (relative to DMSO controls),BLK; BLK,109.86%
same,remaining activity at 10 µM,"BLK; read-out: % Enzyme Activity (relative to DMSO controls), BLK",110%
same,% Enzyme Activity (relative to DMSO controls),c-Src; c-Src,109.48%
same,remaining activity at 10 µM,"c-Src; read-out: % Enzyme Activity (relative to DMSO controls), c-Src",107%
same,% Enzyme Activity (relative to DMSO controls),DDR1; DDR1,85.1%
same,remaining activity at 10 µM,"DDR1; read-out: % Enzyme Activity (relative to DMSO controls), DDR1",94.8%
same,% Enzyme Activity (relative to DMSO controls),YES/YES1; YES/YES1,102.37%
same,remaining activity at 10 µM,"YES/YES1; read-out: % Enzyme Activity (relative to DMSO controls), YES/YES1",96%
same,% Enzyme Activity (relative to DMSO controls),PEAK1; PEAK1,103.94%
same,remaining activity at 10 µM,"PEAK1; read-out: % Enzyme Activity (relative to DMSO controls), PEAK1",104%
same,"pActivity, HSP90AA1",HSP90AA1,7.48
same,"number of off-target kinases experimentally identified, In vitro binding (KinomeSCAN)",382 unique human kinases [1],0
same,% Enzyme Activity (relative to DMSO controls),LCK; LCK,109.56%
same,remaining activity at 10 µM,"LCK; read-out: % Enzyme Activity (relative to DMSO controls), LCK",110%
same,% Enzyme Activity (relative to DMSO controls),FYN; FYN,102.22%
same,remaining activity at 10 µM,"FYN; read-out: % Enzyme Activity (relative to DMSO controls), FYN",103%
same,"pActivity, TRAP1",TRAP1,5.8
same,activity against the 16-kinase panel,16-kinase panel,inactive
same,% Enzyme Activity (relative to DMSO controls),FGR; FGR,101.88%
same,remaining activity at 10 µM,"FGR; read-out: % Enzyme Activity (relative to DMSO controls), FGR",102%
same,% Enzyme Activity (relative to DMSO controls),ABL2/ARG; ABL2/ARG,106.65%
same,remaining activity at 10 µM,"ABL2/ARG; read-out: % Enzyme Activity (relative to DMSO controls), ABL2/ARG",107%
same,% Enzyme Activity (relative to DMSO controls),PASK; PASK,102.33%
same,remaining activity at 10 µM,"PASK; read-out: % Enzyme Activity (relative to DMSO controls), PASK",101%
same,% Enzyme Activity (relative to DMSO controls),TRKA; TRKA,103.51%
same,remaining activity at 10 µM,"TRKA; read-out: % Enzyme Activity (relative to DMSO controls), TRKA",104%
same,"pActivity, HSP90AB1",HSP90AB1,7.42
same,% Enzyme Activity (relative to DMSO controls),TRKC; TRKC,97.21%
same,remaining activity at 10 µM,"TRKC; read-out: % Enzyme Activity (relative to DMSO controls), TRKC",93.3%
same,% Enzyme Activity (relative to DMSO controls),ABL1; ABL1,104.74%
same,remaining activity at 10 µM,"ABL1; read-out: % Enzyme Activity (relative to DMSO controls), ABL1",111%
c1ccc2c(-c3cnn4cc(-c5ccc(N6CCNCC6)cc5)cnc34)ccnc2c1 [LDN193189],IC50,382 unique human kinases [2],0.165 µM
Oc1ccc(-c2nc(-c3ccncc3)c(-c3ccc(F)cc3)[nH]2)cc1 [SB202190],IC50,382 unique human kinases [3],9.41 µM
O=C1Nc2ccc3ncsc3c2/C1=C/c1cnc[nH]1 [PKR Inhibitor],IC50,382 unique human kinases [4],12.4 µM
same,IC50,382 unique human kinases [5],35.5 µM
O=C1NC(=O)c2c1c(-c1ccccc1Cl)cc1[nH]c3ccc(O)cc3c21 [Wee-1 Inhibitor],IC50,382 unique human kinases [6],3.57 µM
